The results in this text go back to ChEMBL document CHEMBL6087469, “Targeting Oncogenic RET Kinase by Simultaneously Inhibiting Kinase Activity and Degrading the Protein” (J Med Chem, 2025).

A short description of data set [1]: Tmax in mouse at 50 mg/kg, ip measured for 48 hrs by LC/MS/MS analysis. Format: ADME, organism-based. The settings on record: in vivo.
Data set [2] can be described thus: AUC (0 to infinity) in mouse at 50 mg/kg, ip measured for 48 hrs by LC/MS/MS analysis. In kind it is ADME, organism-based. The conditions noted are these: in vivo.
For data set [3], the system named is TPC1. Description: Inhibition of cell proliferation in human TPC1 cells measured after 5 days by Cell Titer Glo assay. In kind it is functional, cell-based. The settings on record: time 5.0 day. A general note: In ATP-based viability assays light output follows the ATP content of the culture.
Data set [4] in a line: Half life in mouse at 50 mg/kg, ip measured for 48 hrs by LC/MS/MS analysis. In kind it is ADME, organism-based. The settings on record: in vivo.
Data set [5] in a line: Cmax in mouse at 50 mg/kg, ip measured for 48 hrs by LC/MS/MS analysis. In kind it is ADME, organism-based. The conditions noted are these: in vivo.
The subject of data set [6] is TPC1. Description: Downregulation of CDKN1B expression in human TPC1 cells at 200 nM incubated for 24 hrs by TMT mass spectrometric proteomic analysis. In kind it is functional, cell-based.
Data set [7] concerns TPC1. Description: Downregulation of AURKB expression in human TPC1 cells at 200 nM incubated for 24 hrs by TMT mass spectrometric proteomic analysis. In kind it is functional, cell-based.
Data set [8] has as its system TPC1. Description: Downregulation of MKI67 expression in human TPC1 cells at 200 nM incubated for 24 hrs by TMT mass spectrometric proteomic analysis. In kind it is functional, cell-based.
The subject of data set [9] is TPC1. Kind of data set: Downregulation of AURKA expression in human TPC1 cells at 200 nM incubated for 24 hrs by TMT mass spectrometric proteomic analysis. In kind it is functional, cell-based.
For data set [10], the system named is TPC1. Description: Downregulation of CDK2 expression in human TPC1 cells at 200 nM incubated for 24 hrs by TMT mass spectrometric proteomic analysis. Format: functional, cell-based.
Data set [11] concerns TPC1. Kind of data set: Induction of CCDC6-RET fusion degradation in human TPC1 cells upto 250 nM incubated for 24 hrs by immunoblotting analysis. In kind it is cell-based.
Data set [12] concerns the target Coiled-coil domain-containing protein 6/Tyrosine-protein kinase receptor RET (Homo sapiens) (UniProt P07949+Q16204). Description: Inhibition of CCDC6-RET fusion kinase activity in human TPC1 cells upto 250 nM incubated for 24 hrs by immunoblotting analysis. Format: cell-based. Background: A western blot detects proteins with antibodies after separation by electrophoresis.

The structures appear in SMILES notation. Calls of active or inactive are those of the source. The rule behind the calls is not given here.

Coiled-coil domain-containing protein 6/Tyrosine-protein kinase receptor RET (Homo sapiens), sequence (P07949 29-1114 limits assumed): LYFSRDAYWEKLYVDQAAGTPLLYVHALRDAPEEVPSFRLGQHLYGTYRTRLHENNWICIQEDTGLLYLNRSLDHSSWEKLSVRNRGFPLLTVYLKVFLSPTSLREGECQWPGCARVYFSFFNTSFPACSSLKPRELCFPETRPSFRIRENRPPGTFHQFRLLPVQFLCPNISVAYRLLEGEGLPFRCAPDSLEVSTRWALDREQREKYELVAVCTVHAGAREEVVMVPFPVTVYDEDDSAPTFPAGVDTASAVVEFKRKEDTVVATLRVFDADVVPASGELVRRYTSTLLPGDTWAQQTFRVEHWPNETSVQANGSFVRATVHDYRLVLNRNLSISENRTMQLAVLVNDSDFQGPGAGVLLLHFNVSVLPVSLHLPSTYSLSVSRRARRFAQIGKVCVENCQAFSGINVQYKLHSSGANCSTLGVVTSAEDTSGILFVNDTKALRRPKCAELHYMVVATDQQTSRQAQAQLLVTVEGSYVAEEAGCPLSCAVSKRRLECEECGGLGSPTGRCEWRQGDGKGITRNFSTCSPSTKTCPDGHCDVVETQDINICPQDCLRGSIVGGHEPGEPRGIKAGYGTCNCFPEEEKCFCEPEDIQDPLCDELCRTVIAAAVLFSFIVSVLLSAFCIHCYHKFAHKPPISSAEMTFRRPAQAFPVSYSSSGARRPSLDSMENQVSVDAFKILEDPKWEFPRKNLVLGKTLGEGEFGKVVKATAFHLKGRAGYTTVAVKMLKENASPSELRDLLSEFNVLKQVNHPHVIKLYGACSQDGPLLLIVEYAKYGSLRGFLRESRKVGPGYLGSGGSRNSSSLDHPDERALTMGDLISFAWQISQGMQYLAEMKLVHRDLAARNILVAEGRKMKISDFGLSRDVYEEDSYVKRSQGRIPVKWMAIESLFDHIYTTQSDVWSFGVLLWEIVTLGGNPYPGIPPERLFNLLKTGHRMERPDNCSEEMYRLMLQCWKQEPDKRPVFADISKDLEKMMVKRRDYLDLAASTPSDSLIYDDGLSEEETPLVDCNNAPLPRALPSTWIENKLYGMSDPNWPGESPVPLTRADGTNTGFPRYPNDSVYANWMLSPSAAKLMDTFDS
Coiled-coil domain-containing protein 6/Tyrosine-protein kinase receptor RET (Homo sapiens), sequence (Q16204 2-474 partner limits assumed): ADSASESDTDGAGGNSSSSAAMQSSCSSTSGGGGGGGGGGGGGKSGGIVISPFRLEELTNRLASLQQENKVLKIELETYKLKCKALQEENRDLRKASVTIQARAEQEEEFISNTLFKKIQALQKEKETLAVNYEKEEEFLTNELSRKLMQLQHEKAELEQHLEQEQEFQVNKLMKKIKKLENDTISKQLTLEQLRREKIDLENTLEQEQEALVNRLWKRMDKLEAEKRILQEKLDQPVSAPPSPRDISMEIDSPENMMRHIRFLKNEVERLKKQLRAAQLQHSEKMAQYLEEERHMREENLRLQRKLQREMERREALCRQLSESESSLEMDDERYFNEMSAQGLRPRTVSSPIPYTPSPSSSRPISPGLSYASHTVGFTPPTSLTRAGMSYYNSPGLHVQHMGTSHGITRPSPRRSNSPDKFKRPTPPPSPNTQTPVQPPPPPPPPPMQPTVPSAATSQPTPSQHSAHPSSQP

A word on the Tmax: it is the time from dosing to the highest level. In general, AUC(0-inf) refers to the area under the concentration-time curve extrapolated to infinity. Read a high AUC(0-inf) as high exposure. What is called half-life is how long it takes for the measured level to halve. Low readings indicate fast loss, high ones slow loss. As usually defined, the Cmax is the highest concentration seen after dosing. As to `COc1ccc(CN2C3CC2CN(c2ccc(-c4cc(OCCCC(=O)N5CCC(N6CCC(C#Cc7ccc(C(=O)NCC#Cc8ccc9c(c8)CN(C8CCC(=O)NC8=O)C9=O)cc7)CC6)CC5)cn5ncc(C#N)c45)cn2)C3)cn1` (stereo not drawn), the time of peak concentration (Tmax) in [1] (read-out: Tmax) was 1 h. This molecule also registered an AUC(0-inf) in data set [2] of 3670 ng·h/mL. Besides, the inhibition entry in the data set with TPC1 [3] was “Active”. Further, the half-life in data set [4] was 7.3 h. Moreover, the Cmax in [5] (read-out: Cmax) was determined as 1140 ng/mL.

The term AUC denotes the area under the concentration-time curve, a measure of exposure. Low readings indicate less exposure, high ones more exposure. With `COc1ccc(CN2C3CC2CN(c2ccc(-c4cc(OCCCC(=O)NC5CC6(CCN(c7ccc(C(=O)NCCOc8ccc(C9CCC(=O)NC9=O)cc8)cc7)CC6)C5)cn5ncc(C#N)c45)cn2)C3)cn1` (stereo not drawn), in data set [1] (ip, 50 mg/kg, 48 h), the Tmax was found to be 0.17 h. For the same molecule, in data set [2] (ip, 50 mg/kg, 48 h), the AUC came out at 2342.1 ng·h/mL. Further, in the data set on TPC1 [3], the inhibition result was “Active”. This molecule gave a t1/2 in data set [4] (ip, 50 mg/kg, 48 h) of 0.25 h. The molecule further showed a maximum concentration (Cmax) in [5] (ip, 50 mg/kg, 48 h) of 44.9 ng/mL.

For the molecule `COc1ccc(CN2C3CC2CN(c2ccc(-c4cc(OCC(C)(C)O)cn5ncc(C#N)c45)cn2)C3)cn1`, the outcome with TPC1 [6], in the data set with TPC1 [7], with TPC1 [8], in the data set with TPC1 [9] and in the data set on TPC1 [10] was Active.

With `COc1ccc(CN2C3CC2CN(c2ccc(-c4cc(OCCCCCCCC(=O)N5CCN(c6ccc(C(=O)NCCOc7ccc(C8CCC(=O)N(C)C8=O)cc7)cn6)CC5)cn5ncc(C#N)c45)cn2)C3)cn1` (stereo not drawn), the outcome in the data set on TPC1 [11] was inactive. The inhibition entry (with TPC1 [3]; in data set [12]) was “Active” each time.
